The text below walks through data of PubChem BioAssay AID1259408 (Genetic Toxicology Data Bank (GENE-TOX), 2018).

Calls of active or inactive are those of the source. The rule behind the calls is not given here.

The test system of this series is GENE-TOX genotoxicity assays, various organisms and cells. Put plainly: GENE-TOX mutagenicity studies. The settings on record: for call: Assay Type: In vivo carcinogenicity studies.
[1] abbreviates: Species/Cell Type: Bacillus subtilis (H17 vs M45), Assay Type: Rec-assay, spot test, DNA effects (bacterial DNA repair), Assay Code: REW+, Evaluation Type: Evaluation A (Pre-1980).
The mark [2] stands for this setting: Species/Cell Type: Saccharomyces cerevisiae, Assay Type: Mitotic recombination or gene conversion, Assay Code: YEH+, Evaluation Type: Evaluation A (Pre-1980).
Where [3] appears, read: Species/Cell Type: Salmonella typhimurium (one or more of the five standard strains: TA98, TA100, TA1535, TA1537, and TA1538), Assay Type: Histidine reverse gene mutation, Ames assay, Assay Code: SAL+, Evaluation Type: Evaluation A (Pre-1980).
The mark [4] stands for this setting: Species/Cell Type: Syrian hamster embryo (SHE) cells, Assay Type: Cell transformation, clonal assay, Assay Code: CTC+, Evaluation Type: Evaluation A (Pre-1980).
Setting [5] is: Species/Cell Type: Saccharomyces cerevisiae, Assay Type: Mitotic recombination or gene conversion, Assay Code: YEH-, Evaluation Type: Evaluation A (Pre-1980).
Where [6] appears, read: Species/Cell Type: Salmonella typhimurium (one or more of the five standard strains: TA98, TA100, TA1535, TA1537, and TA1538), Assay Type: Histidine reverse gene mutation, Ames assay, Assay Code: SAL-, Evaluation Type: Evaluation A (Pre-1980).
[7] abbreviates: Species/Cell Type: Allium cepa, Assay Type: Chromosome aberrations, Assay Code: ALC+, Evaluation Type: Evaluation A (Pre-1980).
[8] abbreviates: Species/Cell Type: Drosophila melanogaster, Assay Type: Sex-linked recessive lethal gene mutation, Assay Code: SRLT, Evaluation Type: Evaluation A (Pre-1980).
[9] abbreviates: Species/Cell Type: Human diploid fibroblasts, Assay Type: Unscheduled DNA synthesis (UDS) in vitro, DNA effects, Assay Code: UDH-, Evaluation Type: Evaluation A (Pre-1980).
The mark [10] stands for this setting: Species/Cell Type: Nonhuman, Assay Code: CCG+, Evaluation Type: Evaluation A (Pre-1980).

Regarding `ClCc1ccccc1`, the mutagenic call by setting is: under setting [1], “active; positive”; (Species/Cell Type: Chinese hamster ovary (CHO) cells, Assay Type: Forward gene mutation at the HPRT locus, Assay Code: CHOT, Evaluation Type: Evaluation B (Post-1980)) “no conclusion”; (Species/Cell Type: Escherichia coli polA (W3110 vs P3478), Assay Type: Rec-assay, DNA effects (bacterial DNA repair), Assay Code: RE2+, Evaluation Type: Evaluation A (Pre-1980)) “active; positive”; (Species/Cell Type: Escherichia coli polA (W3119 vs P3478), Assay Type: Rec-assay, DNA effects (bacterial DNA repair), Assay Code: RE1+, Evaluation Type: Evaluation A (Pre-1980)) “active; positive”; (Species/Cell Type: Human diploid fibroblasts, Assay Type: Unscheduled DNA synthesis (UDS) in vitro, DNA effects, Assay Code: UDH+, Evaluation Type: Evaluation A (Pre-1980)) “active; positive”; (Species/Cell Type: Human lymphocytes, Assay Type: Sister-chromatid exchange (SCE) in vitro, Assay Code: SCL+, Evaluation Type: Evaluation B (Post-1980)) “active; positive”. In addition, the mutagenic call by setting is: (Species/Cell Type: Human, Assay Type: Sister-chromatid exchange (SCE) in vitro, Assay Code: SC1+, Evaluation Type: Evaluation B (Post-1980)) “active; positive”; (Species/Cell Type: Mammalian polychromatic erythrocytes, Assay Type: Micronucleus test, chromosome aberrations, Assay Code: MNT-, Evaluation Type: Evaluation B (Post-1980)) “inactive; negative”; under setting [2], “active; positive”; under setting [3], “active; positive”; (Species/Cell Type: Salmonella typhimurium, Assay Type: Forward and reverse gene mutation, host-mediated assay, Assay Code: HMA-, Evaluation Type: Evaluation A (Pre-1980)) “inactive; negative”; under setting [4], “active; positive”. The call (Species/Cell Type: Nonhuman, Assay Code: CCG+L, Evaluation Type: Evaluation A (Pre-1980)) is “active; positive”.
Regarding `COc1ccc2c(c1)C(=O)N(CCc1ccc(S(=O)(=O)NC(=O)NC3CCCCC3)cc1)C(=O)C2(C)C`, the mutagenic call (Species/Cell Type: Nonhuman, Assay Type: Sister-chromatid exchange (SCE) in vivo, Assay Code: SC3T, Evaluation Type: Evaluation B (Post-1980)) is given as “no conclusion”.
On to `CC=Cc1ccccc1O`, for which the mutagenic call reads like this: (Species/Cell Type: Human lymphocytes, Assay Type: Sister-chromatid exchange (SCE) in vitro, Assay Code: SCL+D, Dose Response: With dose response, Evaluation Type: Evaluation B (Post-1980)) “active; positive”; (Species/Cell Type: Human, Assay Type: Sister-chromatid exchange (SCE) in vitro, Assay Code: SC1+D, Dose Response: With dose response, Evaluation Type: Evaluation B (Post-1980)) “active; positive”.
Turning to `CCCCI`, the mutagenic call (Species/Cell Type: Escherichia coli polA (W3119 vs P3478), Assay Type: Rec-assay, DNA effects (bacterial DNA repair), Assay Code: RE1T, Evaluation Type: Evaluation A (Pre-1980)) is recorded as “no conclusion”.
Turning to `O=NN1CCCC1=O`, under setting [1], the mutagenic call was “active; positive”.
As for `CC1(C)[C@H]2CC[C@]1(C)[C@H](O)C2`, the mutagenic call runs as follows: under setting [5], “inactive; negative”; under setting [6], “inactive; negative”.
`O=c1c(=O)c2cc3ccccc3c3ccc4cccc1c4c23`: the mutagenic call was “inactive; negative” (Species/Cell Type: Chinese hamster lung (V79) cells, Assay Type: Forward gene mutation at the HPRT or ouabain locus, Assay Code: V79-, Evaluation Type: Evaluation A (Pre-1980)); “no conclusion” (Species/Cell Type: Salmonella typhimurium (one or more of the five standard strains: TA98, TA100, TA1535, TA1537, and TA1538), Assay Type: Histidine reverse gene mutation, Ames assay, Assay Code: SALT, Evaluation Type: Evaluation A (Pre-1980)).
For the compound `Nc1ncn[nH]1`, the mutagenic call reads like this: under setting [7], “active; positive”; (Species/Cell Type: Drosophila melanogaster, Assay Type: Aneuploidy, sex chromosome gain, chromosome aberrations, Assay Code: DAG-F, Evaluation Type: Evaluation A (Pre-1980)) “inactive; negative”; (Species/Cell Type: Drosophila melanogaster, Assay Type: Aneuploidy, whole sex chromosome loss, chromosome aberrations, Assay Code: DAC-F, Evaluation Type: Evaluation A (Pre-1980)) “inactive; negative”; under setting [8], “no conclusion”; (Species/Cell Type: Escherichia coli polA (W3110 vs P3478), Assay Type: Rec-assay, DNA effects (bacterial DNA repair), Assay Code: RE2-, Evaluation Type: Evaluation A (Pre-1980)) “inactive; negative”; (Species/Cell Type: Escherichia coli polA (W3119 vs P3478), Assay Type: Rec-assay, DNA effects (bacterial DNA repair), Assay Code: RE1-, Evaluation Type: Evaluation A (Pre-1980)) “inactive; negative”. For the same compound, the mutagenic call reads like this: (Species/Cell Type: Fischer rat embryo (RLV/1706) cells, Assay Type: Cell transformation, viral enhanced, Assay Code: CTR+, Evaluation Type: Evaluation A (Pre-1980)) “active; positive”; (Species/Cell Type: Hordeum vulgare (barley), Assay Type: Chromosome aberrations, Assay Code: HOC+, Evaluation Type: Evaluation A (Pre-1980)) “active; positive”; under setting [9], “inactive; negative”; (Species/Cell Type: Mammalian polychromatic erythrocytes, Assay Type: Micronucleus test, chromosome aberrations, Assay Code: MNTT, Evaluation Type: Evaluation A (Pre-1980)) “no conclusion”; (Species/Cell Type: Mouse, Sex: Male, Assay Type: Sperm morphology, Assay Code: SPI-, Evaluation Type: Evaluation A (Pre-1980)) “inactive; negative”; (Species/Cell Type: Neurospora crassa, Assay Type: Aneuploidy, chromosome aberrations, Assay Code: NEN-, Evaluation Type: Evaluation A (Pre-1980)) “inactive; negative”. The mutagenic call runs as follows: (Species/Cell Type: Nonhuman, Assay Type: Sister-chromatid exchange (SCE) in vitro, Assay Code: SC2+D*, Activation: With metabolic activation, Dose Response: With dose response, Evaluation Type: Evaluation B (Post-1980)) “active; positive”; under setting [5], “inactive; negative”; under setting [6], “inactive; negative”; (Species/Cell Type: Salmonella typhimurium, Assay Type: Forward and reverse gene mutation, host-mediated assay, Assay Code: HMA+, Evaluation Type: Evaluation A (Pre-1980)) “active; positive”; under setting [4], “active; positive”; (Species/Cell Type: Vicia faba, Assay Type: Chromosome aberrations, Assay Code: VIC+, Evaluation Type: Evaluation A (Pre-1980)) “active; positive”. Further, the call under setting [10] is “active; positive”.
Consider `O=NN1CC=CCC1`, for which the mutagenic call (Species/Cell Type: Drosophila melanogaster, Assay Type: Aneuploidy, partial sex chromosome loss, chromosome aberrations, Assay Code: DAPT, Evaluation Type: Evaluation A (Pre-1980)) was “no conclusion”; the mutagenic call (Species/Cell Type: Drosophila melanogaster, Assay Type: Aneuploidy, whole sex chromosome loss, chromosome aberrations, Assay Code: DACT, Evaluation Type: Evaluation A (Pre-1980)) is “no conclusion”; the mutagenic call (Species/Cell Type: Drosophila melanogaster, Assay Type: Sex-linked recessive lethal gene mutation, Assay Code: SRL+, Evaluation Type: Evaluation A (Pre-1980)) was “active; positive”; the mutagenic call under setting [3] is “active; positive”.
`O=C(Nc1nc(-c2ccc([N+](=O)[O-])o2)cs1)C(F)(F)F`: the mutagenic call is, setting by setting: (Species/Cell Type: Escherichia coli WP2, Assay Type: Tryptophan reverse gene mutation, Assay Code: WP2+, Evaluation Type: Evaluation A (Pre-1980)) “active; positive”; (Species/Cell Type: Escherichia coli WP2 UVRA, Assay Type: Tryptophan reverse gene mutation, Assay Code: WPU-, Evaluation Type: Evaluation A (Pre-1980)) “inactive; negative”; under setting [3], “active; positive”.
With `Cc1c2ccccc2c(C)c2c1ccc1cc(O)ccc12`, the mutagenic call (Species/Cell Type: Chinese hamster lung (V79) cells, Assay Type: Forward gene mutation at the HPRT or ouabain locus, Assay Code: V79-*, Activation: With metabolic activation, Evaluation Type: Evaluation A (Pre-1980)) was “inactive; negative”. Besides, under “Species/Cell Type: Nonhuman, Assay Code: CCGT, Evaluation Type: Evaluation A (Pre-1980)”, the call is “no conclusion”.
Turning to `N#CCCN`, the mutagenic call was “no conclusion” under setting [8] and “active; positive” (Species/Cell Type: Nonhuman, Assay Type: Sister-chromatid exchange (SCE) in vivo, Assay Code: SC3+, Evaluation Type: Evaluation B (Post-1980)).
Turning to `O=NN1CCNC1=O`, the mutagenic call (Species/Cell Type: Arabidopsis species, Assay Type: Gene mutation, Assay Code: ARM+D, Dose Response: With dose response, Evaluation Type: Evaluation A (Pre-1980)) was “active; positive”; the mutagenic call (Species/Cell Type: Saccharomyces cerevisiae, Assay Type: Forward gene mutation, Assay Code: YEF+, Evaluation Type: Evaluation A (Pre-1980)) was “active; positive”; the mutagenic call (Species/Cell Type: Saccharomyces cerevisiae, Assay Type: Mitotic recombination or gene conversion, Assay Code: YEC+, Evaluation Type: Evaluation A (Pre-1980)) is “active; positive”; the mutagenic call under setting [2] was “active; positive”; the mutagenic call (Species/Cell Type: Saccharomyces cerevisiae, Assay Type: Reverse gene mutation, Assay Code: YER+, Evaluation Type: Evaluation A (Pre-1980)) was “active; positive”; the mutagenic call under setting [3] is “active; positive”.
As to `Cn1cnc2ncn(C)c2c1=O`, the mutagenic call (Species/Cell Type: Allium cepa, Assay Type: Chromosome aberrations, Assay Code: ALC-, Evaluation Type: Evaluation A (Pre-1980)) was “inactive; negative”.
For `Cc1cc(C)c(C)c(OC(=O)N(C)N=O)c1`, the mutagenic call under setting [3] was “active; positive”.
`O=[N+]([O-])c1ccc2c(ccc[n+]2[O-])c1`: the mutagenic call under setting [9] is “inactive; negative”.
Regarding `CC(C)C(O)(C(=O)OCC1=CC[N@+]2([O-])CCCC12)[C@H](C)O` (some centres undefined), the mutagenic call under setting [8] is recorded as “no conclusion”.
As to `Cc1cc(=O)oc2ccccc12`, the mutagenic call under setting [7] was “active; positive”.
Regarding `Cc1cc(Cl)ccc1N`, under setting [10], the call is “active; positive”.
